System: skin hydration level
Assay: Skin hydration, Corneometer CM 825
Assay type: in vivo, human
Settings: BPO-047 variants, 8% glycerin, 2% sodium PCA
Protocol: Healthy subjects were applied with single dose of formulations as shown in Example 14. Skin hydration is measured using a Corneometer® CM 825 instrument. (Courage+Khazaka, Koln, Germany). The measuring principle of the Corneometer® CM 825 is based on capacitance measurement of dielectric medium. Any change in the dielectric constant due to skin surface hydration alters the capacitance of a measuring capacitor. It is capable of detecting even slight changes in the skin hydration level.
Skin hydration level is assessed at baseline (fifteen minutes after each subject washed the left and right forearms) with the Corneometer® CM 825. The formulations are applied in designated chambers under occlusion for 6 hours which are then removed and the skin cleaned. Hydration is then measured one hour later.
Study protocol: The study was performed in a temperature controlled room (20-24° C.). Subjects washed their arms with water (no soap) and dried their arms with dry paper towel. Formulations were applied using test chambers. The location of each chamber within the stripe was marked once applied (maximum of 3 stripes on each arm). Each stripe contained only one formulation. One stripe served as a control, non treated area. […] Skin hydration level was assessed at baseline T=0 (minimum 15 minutes following rinse), using the Corneometer® CM 825, and tested based on study design. […]

Row | SMILES | hydration effect (Corneometer)
1 | O=C1CCC(C(=O)[O-])N1.[Na+] (centres unmarked) [Sodium PCA, sodium salt of 2-pyrrolidone-5-carboxylic acid] | increases hydration but to a lesser extent
2 | OCC(O)CO [glycerin] | main contributor to the hydration effect

Reference: US9439857B2, “Foam containing benzoyl peroxide” (Foamix Pharmaceuticals Ltd., priority 2007, dated 2016)
